Consider nine compounds from PubChem BioAssay (NCI).

SMILES strings stand for the structures.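 Assay format: 96-well plates, 48-hour exposure. Abbreviation: GI50, concentration required for 50% inhibition of growth. TGI: total growth inhibition.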

Experiment in all cases: DTP human tumour cell line panel, 48 h
The test system of test [1] is 786-0 renal.
Test [2] deals with A498 renal.
In test [3] the test system is EKVX NSCLC.
Test [4] has as its system HL-60(TB) leukemia.
The test system of test [5] is NCI-H226 lung.
For test [6], the system named is RXF 393 renal.
For test [7], the system named is SF-295 CNS.
For test [8], the system named is SK-MEL-2 melanoma.
Test [9] deals with SR leukemia.
For test [10], the system named is UO-31 renal.

As a reminder, the TGI is the concentration giving total growth inhibition. Read a high TGI as lower sensitivity of the cells. On to `CC(=O)C1C(=O)C(=O)N(c2ccccc2N2C(=O)C(=O)C(C(C)=O)C2=O)C1=O` (centres undefined), for which the TGI in [1], in test [2], in [3], in test [4], in test [5] and in [6] was above 100 µM throughout. For the same compound, the TGI in test [7], in [8], in [9] and in test [10] was above 100 µM in each case.
As usually defined, the GI50 is the concentration that inhibits growth by half. Take `CN(C)C(=O)c1cc2cnc(Nc3ccc(-c4csc5c(=O)cc(N6CCNCC6)oc45)cc3)nc2n1C1CCCC1`: the GI50 in test [1] is 0.535 µM; in [2], 1.24 µM; in test [3] it was 1.49 µM; in test [4], 0.271 µM; in test [5], 1.61 µM; in [6] it was 0.27 µM. The GI50 is 2.1 µM in test [7], 2.09 µM in [8], 0.231 µM in test [9] and 1.64 µM in [10]. The TGI in [1] worked out at 1.93 µM; in test [2], 3.01 µM; in [3], 6.53 µM; in test [4], 1.72 µM; in test [5] it was 15.3 µM; in test [6] it was 1.03 µM. For the same compound, the TGI worked out at 10.7 µM in [7], 7.14 µM in test [8], 2.44 µM in [9] and 4.58 µM in test [10].
For `COc1ccc2c(c1)sc1nc(-c3ccccc3)c(-c3ccc(O)c(OC)c3)n12`, the GI50 in test [1] is 30.9 µM; in test [2] it was 28.3 µM; in [3] it was 74.7 µM; in test [4], 5.33 µM; in [5], 22 µM; in [6], 4.9 µM. In addition, the GI50 in test [7] is 8 µM; in test [8], 21.3 µM; in test [9] it was 3.34 µM; in test [10], 81 µM. For the same compound, the total growth inhibition concentration (TGI) is above 100 µM in test [1]; above 100 µM in test [2]; above 100 µM in [3]; above 100 µM in test [4]; above 100 µM in [5]; 29.8 µM in test [6]. For the same compound, the total growth inhibition concentration (TGI) in test [7], in test [8], in test [9] and in test [10] was above 100 µM in each case.
As to `Cc1ccccc1NC(=O)C1C(=O)N(c2ccccc2C)C(=O)/C1=N\N` (centres undefined), the TGI in test [1], in [2], in test [3], in test [4], in test [5] and in [6] was above 100 µM throughout. Also, the TGI in [7], in test [8], in test [9] and in [10] was above 100 µM throughout.
As for `O=C(O)CCCCCO`, the total growth inhibition concentration (TGI) in test [1], in test [2], in test [3], in test [4], in [5] and in [6] was above 100 µM each time. Also, the TGI in [7], in test [8], in [9] and in test [10] was above 100 µM each time.
Regarding `Nc1nc(N)c2c(ccc3nccc32)[nH]1`, the GI50 was 7.01 µM in test [1]; 18.3 µM in test [2]; 2.22 µM in test [3]; 2.53 µM in test [4]; 15.2 µM in test [5]; 3.09 µM in [6]. For the same compound, the GI50 in [7] is 1.95 µM; in test [8], 10.1 µM; in test [9], 1.29 µM; in test [10] it was 4.14 µM. Also, the TGI is above 100 µM in test [1]; 98.3 µM in [2]; above 100 µM in test [3]; above 78.8 µM in [4]; above 88.9 µM in [5]; 17.8 µM in test [6]. The TGI was above 91.3 µM in [7], 37.1 µM in test [8] and 31.1 µM in test [10].
As to `CO/N=C(/COc1c(-c2ccccc2)oc2ccccc2c1=O)c1ccc(OC)cc1`, the GI50 was above 100 µM in test [1]; 32.9 µM in [2]; above 100 µM in [3]; 21.5 µM in test [4]; above 100 µM in test [5]; above 100 µM in test [6]. Moreover, the GI50 in test [7] was above 100 µM; in test [8] it was above 100 µM; in test [9], 9.1 µM; in test [10], 61.3 µM. The total growth inhibition concentration (TGI) in test [1], in test [2], in [3], in test [4], in test [5] and in test [6] was above 100 µM throughout. In addition, the total growth inhibition concentration (TGI) in test [7] is above 100 µM; in test [8] it was above 100 µM; in test [9] it was 53.4 µM; in [10], above 100 µM.
On to `CCCCCCCCCCCC[n+]1ccccc1`, for which the GI50 in [1] is 1.48 µM; in [2] it was 1.57 µM; in [3] it was 0.936 µM; in test [4], 0.422 µM; in [5] it was 1.44 µM; in [6], 0.738 µM. For the same compound, the GI50 in test [7] is 1.39 µM; in [8], 1.44 µM; in test [9], 0.202 µM; in [10], 1.72 µM. Also, the TGI in [1] is 3.42 µM; in test [2] it was 7.48 µM; in test [3] it was 9.17 µM; in test [4] it was 1.99 µM; in test [5], 8.83 µM; in [6] it was 3.87 µM. Further, the TGI in [7] amounted to 4.1 µM; in test [8] it was 3.73 µM; in test [9] it was 2.15 µM; in test [10], 11 µM.
`CCc1ccc(Nc2cc(=O)[nH]c(=S)n2C)cc1`: the concentration for total growth inhibition (TGI) in [1], in test [2], in test [3], in test [4], in test [5] and in [6] was above 100 µM in each case. The total growth inhibition concentration (TGI) in [7], in [8], in test [9] and in test [10] was above 100 µM in each case.
